In patent US4175081A, “5-Substituted thiadiazole ureas” (priority 1977, dated 1979):

Legend:
[1] = test system: Cotton (CT); assay: Post-emergence herbicide test; assay type: in vivo, Gossypium hirsutum var. DPL smooth leaf; conditions: Gossypium hirsutum, post-emergence, 336 h, two weeks after treatment
Method in brief: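 Cotton (Gossypium hirsutum var. DPL smooth leaf) was grown in 3' plastic pots of potting soil, four seeds per pot, planted at a depth equal to the seed diameter and watered by sub-irrigation. At the stage of expanded cotyledons with the first true leaf 1' long, plants were sprayed post-emergence in a hood with a fixed nozzle over a moving belt. Percent control was rated visually two weeks later.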

[2] = test system: Yellow foxtail grass (YF); assay: Post-emergence herbicide test; assay type: in vivo, Setaria glauca; conditions: Setaria, 336 h, two weeks after treatment
Method in brief: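 Potted seedlings grown in greenhouse, planting staggered to reach the target stage together, then sprayed post-emergence at 8 lbs actual compound/acre in 38 gallons/acre (4 lbs/acre formulations also prepared). Sub-irrigated afterwards. Injury or control rated visually two weeks after treatment.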

[3] = test system: Bean (BN); assay: Post-emergence herbicide test; assay type: in vivo, Phaseolus vulgaris var. Black Valentine; conditions: Phaseolus vulgaris, post-emergence, 336 h, two weeks after treatment
Method in brief: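 Snapbean (Phaseolus vulgaris var. Black Valentine) was tested post-emergence. Four seeds were sown in 3' plastic pots of potting soil at a depth equal to the seed diameter, then sub-irrigated in greenhouse trays. Planting dates were staggered so plants were sprayed once primary leaves had expanded, with the growing point at the primary leaf nodes.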

[4] = test system: Amaranth pigweed (PW); assay: Pre-emergence herbicide test; assay type: in vivo, Amaranthus retroflexus; conditions: 336 h, two weeks after treatment
Method in brief: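 Pigweed was surface-seeded in potted soil one day before spraying at 8 lbs compound per acre, or 4 lbs/acre, in 38 gallons per acre. Pots were kept in the greenhouse with sub-irrigation only; injury or control was rated visually two weeks after treatment.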

[5] = test system: Johnson grass (JG); assay: Post-emergence herbicide test; assay type: in vivo, Sorgum helepense; conditions: Sorghum halepense, 336 h, two weeks after treatment
Method in brief: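 Greenhouse pot-grown seedlings sprayed post-emergence at 8 lbs compound per acre (some at 4 lbs/acre) in 38 gallons per acre spray volume. Sub-irrigated thereafter. Injury/control rated visually two weeks after treatment.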

[6] = test system: Yellow foxtail grass (YF); assay: Pre-emergence herbicide test; assay type: in vivo, Setaria glauca; conditions: Setaria, 336 h, two weeks after treatment
Method in brief: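 Seeds surface-sown in potting soil one day before spraying; compounds applied pre-emergence at 8 or 4 lbs/acre in 38 gallons/acre spray. Pots held in greenhouse with sub-irrigation only. Injury or control rated visually two weeks after treatment.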

[7] = test system: Bean (BN); assay: Pre-emergence herbicide test; assay type: in vivo, Phaseolus vulgaris var. Black Valentine; conditions: Phaseolus vulgaris, 336 h, two weeks after treatment
Method in brief: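 Black Valentine bean was seeded in potting soil one day before spraying. Compound was applied pre-emergence at 8 lbs/acre (also 4 lbs/acre) in 38 gallons per acre. Plants were sub-irrigated and injury or control was rated visually after two weeks.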

[8] = test system: variety of crops and weed species; assay: Pre- and post-emergence herbicide tests, overall assessment of Tables III-VI; assay type: in vivo; conditions: data of Tables III-VI
Method in brief: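 Crops and weeds grown in potting soil were sprayed at 8 lbs. compound per acre in 38 gallons per acre, pre-emergence pots seeded one day before treatment. Injury or control was visually rated two weeks after treatment.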

[9] = test system: Barnyard grass (BG); assay: Post-emergence herbicide test; assay type: in vivo; conditions: Echinochloa crus-galli, 336 h, two weeks after treatment
Method in brief: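 Greenhouse pot-grown barnyard grass seedlings sprayed post-emergence at 8 lbs active compound per acre (some at 4 lbs/acre) in 38 gallons per acre, then sub-irrigated. Injury or control rated visually two weeks after treatment.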

[10] = test system: Crabgrass (CG); assay: Pre-emergence herbicide test; assay type: in vivo, Digitaria sanquinalis; conditions: Digitaria sanguinalis, pre-emergence, 336 h, two weeks after treatment
Method in brief: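 Crabgrass (Digitaria sanquinalis) was surface seeded in 3' plastic pots of potting soil, covered with screened soil, and watered by sub-irrigation in greenhouse trays. Pots were seeded one day before spraying in a hood with a moving belt and fixed nozzle. Plants stayed in the greenhouse on sub-irrigation, and pre-emergence control was rated visually two weeks after treatment.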

[11] = test system: Turnip (TP); assay: Post-emergence herbicide test; assay type: in vivo, Brassica sp.; conditions: Brassica rapa, post-emergence, 336 h, two weeks after treatment
Method in brief: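 A greenhouse post-emergence herbicide test on turnip. Seeds were sown on the surface of potting soil in 3' plastic pots, lightly covered with screened soil and watered from below. Planting was timed so seedlings had 1 or 2 true leaves above the cotyledons at spraying, done in a hood with a fixed nozzle. Control or injury was scored by eye after two weeks.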

[12] = test system: Johnson grass (JG); assay: Pre-emergence herbicide test; assay type: in vivo, Sorgum helepense; conditions: Sorghum halepense, 336 h, two weeks after treatment
Method in brief: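 Pots seeded one day before spraying; compound applied pre-emergence at 8 lbs/acre (or 4 lbs/acre) in 38 gallons/acre spray volume. Sub-irrigated in greenhouse; injury/control rated visually two weeks after treatment.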

[13] = test system: Barnyard grass (BG); assay: Pre-emergence herbicide test; assay type: in vivo; conditions: Echinochloa crus-galli, 336 h, two weeks after treatment
Method in brief: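 Barnyard grass surface-seeded in potting soil and sprayed pre-emergence one day after seeding, at 8 or 4 lb compound/acre in 38 gal/acre spray volume. Pots kept in greenhouse with sub-irrigation only; injury or control rated visually two weeks after treatment.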

[14] = test system: Turnip (TP); assay: Pre-emergence herbicide test; assay type: in vivo, Brassica sp.; conditions: Brassica rapa, pre-emergence, 336 h, two weeks after treatment
Method in brief: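 Turnip (Brassica sp.) seeds were surface sown in 3' plastic pots of potting soil, covered with a thin layer of screened soil, and sub-irrigated in greenhouse trays. Pots were seeded one day ahead of treatment, sprayed pre-emergence under a hood with a fixed nozzle and moving belt, then kept in the greenhouse.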

[15] = test system: Crabgrass (CG); assay: Post-emergence herbicide test; assay type: in vivo, Digitaria sanquinalis; conditions: Digitaria sanguinalis, post-emergence, 336 h, two weeks after treatment
Method in brief: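 Crabgrass (Digitaria sanquinalis) was surface seeded individually in 3' plastic pots of potting soil, covered with screened soil, and watered by sub-irrigation in greenhouse trays. Planting was staggered so seedlings reached the target stage together. Post-emergence sprays were applied in a hood with a removable belt and fixed nozzle, and control was visually rated two weeks after treatment.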

[16] = test system: Amaranth pigweed (PW); assay: Post-emergence herbicide test; assay type: in vivo, Amaranthus retroflexus; conditions: 336 h, two weeks after treatment
Method in brief: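 Pot-grown pigweed was sprayed post-emergence at the 1–2 true-leaf stage with compound at rates equivalent to 8 lbs per acre (formulations also prepared for 4 lbs/acre) in 38 gallons per acre, using a hood with fixed nozzle. Plants were sub-irrigated in the greenhouse, and injury or control was rated visually two weeks after treatment.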

[17] = test system: Corn (CN); assay: Pre-emergence herbicide test; assay type: in vivo; conditions: Zea mays, 336 h, two weeks after treatment
Method in brief: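 Four corn seeds per pot, sown at seed-diameter depth one day before spraying, got soil surface treatment at 8 lbs/acre (4 lbs/acre formulations also prepared) in 38 gallons/acre. Pots were greenhouse-held with sub-irrigation only. Injury or control was scored visually two weeks after treatment.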

[18] = test system: Cotton (CT); assay: Pre-emergence herbicide test; assay type: in vivo, Gossypium hirsutum var. DPL smooth leaf; conditions: Gossypium hirsutum, 336 h, two weeks after treatment
Method in brief: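 Crop and weed species seeded one day before treatment, then sprayed pre-emergence at 8 lbs actual compound per acre (also 4 lbs/acre formulations) in 38 gallons per acre. Pots kept in greenhouse with sub-irrigation only; injury or control visually rated two weeks after treatment.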

[19] = test system: Corn (CN); assay: Post-emergence herbicide test; assay type: in vivo; conditions: Zea mays, 336 h, two weeks after treatment
Method in brief: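 Greenhouse seedlings grown in potting soil and sprayed post-emergence at 8 lbs compound/acre (formulations also made for 4 lbs/acre) in 38 gallons/acre spray volume. Watering by sub-irrigation only. Injury or control rated visually two weeks after treatment.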

CNC(=O)N(C)c1nnc(C(F)(F)F)s1 [Example 36]
pest or weed control at 2241.7 g/ha ([1]; 2 lb/acre): 100%
pest or weed control at 4483.4 g/ha ([1]; 4 lb/acre): 100%
pest or weed control at 8966.8 g/ha ([1]; 8 lb/acre): 100%
pest or weed control ([2]; 2 lb/acre): 100%
pest or weed control at 4483.4 g/ha ([2]; 4 lb/acre): 100%
pest or weed control at 8966.8 g/ha ([2]; 8 lb/acre): 100%
pest or weed control at 2241.7 g/ha ([3]; 2 lb/acre): 100%
pest or weed control at 4483.4 g/ha ([3]; 4 lb/acre): 100%
pest or weed control at 8966.8 g/ha ([3]; 8 lb/acre): 100%
pest or weed control at 2241.7 g/ha ([4]; 2 lb/acre): 90%
pest or weed control at 4483.4 g/ha ([4]; 4 lb/acre): 100%
pest or weed control at 8966.8 g/ha ([4]; 8 lb/acre): 90%
pest or weed control ([5]; 2 lb/acre): 80%
pest or weed control at 4483.4 g/ha ([5]; 4 lb/acre): 80%
pest or weed control at 8966.8 g/ha ([5]; 8 lb/acre): 100%
pest or weed control at 2241.7 g/ha ([6]; 2 lb/acre): 100%
pest or weed control at 4483.4 g/ha ([6]; 4 lb/acre): 90%
pest or weed control at 8966.8 g/ha ([6]; 8 lb/acre): 90%
pest or weed control at 2241.7 g/ha ([7]; 2 lb/acre): 90%
pest or weed control at 4483.4 g/ha ([7]; 4 lb/acre): 80%
pest or weed control at 8966.8 g/ha ([7]; 8 lb/acre): 100%
herbicidal effectiveness / selectivity, in words [8]: extremely effective when applied to a variety of crops and weed species
pest or weed control at 2241.7 g/ha ([9]; 2 lb/acre): 100%
pest or weed control at 4483.4 g/ha ([9]; 4 lb/acre): 100%
pest or weed control at 8966.8 g/ha ([9]; 8 lb/acre): 100%
pest or weed control ([10]; 2 lb/acre): 100%
pest or weed control at 4483.4 g/ha ([10]; 4 lb/acre): 90%
pest or weed control at 8966.8 g/ha ([10]; 8 lb/acre): 90%
pest or weed control at 2241.7 g/ha ([11]; 2 lb/acre): 100%
pest or weed control at 4483.4 g/ha ([11]; 4 lb/acre): 100%
pest or weed control at 8966.8 g/ha ([11]; 8 lb/acre): 100%
pest or weed control at 2241.7 g/ha ([12]; 2 lb/acre): 70%
pest or weed control at 4483.4 g/ha ([12]; 4 lb/acre): 40%
pest or weed control at 8966.8 g/ha ([12]; 8 lb/acre): 90%
pest or weed control at 2241.7 g/ha ([13]; 2 lb/acre): 80%
pest or weed control at 4483.4 g/ha ([13]; 4 lb/acre): 100%
pest or weed control at 8966.8 g/ha ([13]; 8 lb/acre): 90%
pest or weed control at 2241.7 g/ha ([14]; 2 lb/acre): 100%
pest or weed control at 4483.4 g/ha ([14]; 4 lb/acre): 100%
pest or weed control at 8966.8 g/ha ([14]; 8 lb/acre): 100%
pest or weed control ([15]; 2 lb/acre): 70%
pest or weed control at 4483.4 g/ha ([15]; 4 lb/acre): 90%
pest or weed control at 8966.8 g/ha ([15]; 8 lb/acre): 100%
pest or weed control at 2241.7 g/ha ([16]; 2 lb/acre): 100%
pest or weed control at 4483.4 g/ha ([16]; 4 lb/acre): 100%
pest or weed control at 8966.8 g/ha ([16]; 8 lb/acre): 100%
pest or weed control at 2241.7 g/ha ([17]; 2 lb/acre): 30%
pest or weed control at 4483.4 g/ha ([17]; 4 lb/acre): 40%
pest or weed control at 8966.8 g/ha ([17]; 8 lb/acre): 30%
pest or weed control at 2241.7 g/ha ([18]; 2 lb/acre): 80%
pest or weed control at 4483.4 g/ha ([18]; 4 lb/acre): 90%
pest or weed control at 8966.8 g/ha ([18]; 8 lb/acre): 90%
pest or weed control ([19]; 2 lb/acre): 70%
pest or weed control at 4483.4 g/ha ([19]; 4 lb/acre): 100%
pest or weed control at 8966.8 g/ha ([19]; 8 lb/acre): 100%
